Source: patent US20040110718A1, “Anti-HCV nucleoside derivatives” (priority 2000, published 2004)

Legend:
[1] = tested on: HCV replicon RNA replication; assay: HCV replicon assay, Renilla luciferase reporter; format: cell-based; settings: Hepatitis C virus, Huh-7, 72 h; Renilla luciferase HCV replicon cells (2209-23, Huh7), three days incubation; concentration reducing luciferase activity/replicon level by 50%
[2] = tested on: HCV replicon RNA replication; assay: HCV replicon assay (quantification of replicon RNA, Northern blot / Taqman kinetic PCR); format: cell-based; settings: Hepatitis C virus, Huh-7, 72 h
Protocol: Assay Method: The activity of the compounds was assayed using an adaptation of the method reported by Lohmann et al [V. Lohmann et al., Science, 1999, 285, 110-113].
The HCV replicon-containing cell line is used for the identification of small molecules that are able to inhibit the replication of the replicon RNA. Since the replicon RNA replication mimics the replication of the HCV RNA in infected hepatocytes, it is believed that those small molecules that have the above property are interesting for further development as anti-HCV drugs.
The inhibition of the HCV replicon RNA replication will lead to a decrease of the replicon RNA in the cell, which can be measured using a method that specifically quantifies this RNA.
Northern blot: One method for quantification of this RNA uses the standard Northern blot known to any person skilled in the art.
Kinetic PCR: A second assay for the quantification of replicon RNA is based on the amplification of the replicon RNA that remains in the cell, after incubation of the cells with a proper concentration of the small molecules. This method involves the reverse transcription of the replicon RNA to the corresponding complementary DNA (cDNA), followed by amplification of the cDNA using the Taqman Kinetic PCR technology (PE Biosystems). This consists of hybridisation of the cDNA with a complementary reporter oligonucleotide (probe), containing a combined fluorescent dye and a quencher dye. Amplification of the DNA sequence containing the hybridised reporter probe, using flanking oligonucleotide primers will lead to the separation of the fluorescent dye from the quencher dye. This will result in an increase of the fluorescence during each amplification cycle.
The neomycin phosphotransferase gene sequence that is present in the replicon RNA was chosen for amplification using specifically designed oligonucleotide primers. To control for (a) cell number that can vary depending on the toxicity or cytostatic effect of the small molecules, and (b) for errors during total RNA extraction, amplification of the host β-actin gene is used for normalisation.
The accumulation of the PCR products during the reaction is monitored directly by measuring the increase in fluorescence of the reporter dye. The amount of HCV replicon RNA (and β-actin RNA) originally present in the total RNA extracted from the cells is then expressed as a threshold cycle, e.g. the cycle at which there is a statistically significant increase in the fluorescence above the background.
For this procedure, HCV replicon-containing human hepatoma Huh7 cells (9-13) in growth medium (DMEM) containing 5% FCS are plated in a 96-well plate at 5×10^3 cells per well, and the plate incubated overnight. 24 hours later, different dilutions in 0.1 ml growth medium of chemical compounds were added to the wells, and the plate further incubated at 37° C. for three days. Total RNA coming from each well is extracted using the RNeasy™ procedure (Qiagen manufacturer instructions), and the total RNA is eluted in a final volume of 0.13 ml. Next, a 2 μl sample of the total RNA is used for convertion into cDNA using a reverse transcription (RT) step. A RT mastermix containing 1 μl 10× Taqman RT buffer, 2.2 μl 25 mM MgCl2 (5.5 mM final conc.), 2 μl dNTP mix (500 μM each), 0.5 μl random hexamer primers (2.5 μM), 0.2 μl RNase inhibitor (0.4 u/μl ), 0.25 μl RT (1.25 u/μl ), 1.85 μl H2O, was distributed in a 96-well plate and 2 μl total RNA was added to each well.
The RT reaction is performed by incubation of the plate 10 min at 25° C., 30 min at 48° C., 5 min at 95° C. and cooling to 4° C. The cDNA samples are then stored at −20° C. or directly used for the PCR reaction. […]

[3] = HCV replicon-containing human hepatoma Huh7 cells (9-13), three days incubation, concentration reducing replicon RNA levels by 50%, read-out: IC50

SMILES | IC50 [1] | other results
CCNc1ncnc2c1ncn2[C@@H]1O[C@H](CO)[C@@H](O)[C@H]1O [Example 252, 6-ethylamino-9-(β-D-ribofuranosyl)purine] | 14 µM | –
OC[C@H]1O[C@@H](n2cnc3c(-c4ccccc4)ncnc32)[C@H](O)[C@@H]1O [Example 182, 6-Phenyl-9-(β-D-ribofuranosyl)purine] | – | IC50 [2, 3]: 0.1 µM; melting point: 224 to 225 °C
OC[C@H]1O[C@@H](n2cnc3c(-c4ccsc4)ncnc32)[C@H](O)[C@@H]1O [Example 181, 9-(β-D-Ribofuranosyl)-6-(3-thienyl)purine] | – | IC50 [2]: 0.05 µM; melting point: 166 to 167 °C (dec.)
Nc1ccn([C@@H]2C[C@H](CO)[C@@H](O)[C@H]2O)c(=O)n1 [Example 246, 4-amino-1(R)-(2(S),3(R)-dihydroxy-4(R)-hydroxymethyl-cyclopentyl)-1H-pyrimidin-2-one] | 0.4 µM | –
Nc1ccn([C@@H]2O[C@H](CO)[C@H](O)[C@H]2O)c(=O)n1 [Example 247, 1-(β-D-xylofuranosyl)cytosine] | 3.7 µM | –
CCCNc1ncnc2c1ncn2[C@@H]1O[C@H](CO)[C@@H](O)[C@H]1O [Example 253, 6-propylamino-9-(β-D-ribofuranosyl)purine] | 7 µM | –
Nc1ccn([C@@H]2O[C@H](CO)[C@H](F)[C@H]2O)c(=O)n1 [Example 249, 1-(3-deoxy-3-fluoro-β-D-xylofuranosyl)cytosine] | 10.4 µM | –
OC[C@H]1O[C@@H](n2cnc3c(N4CCCC4)ncnc32)[C@H](O)[C@@H]1O [Example 77, 6-(1-Pyrrolidinyl)-9-(β-D-ribofuranosyl)purine] | – | IC50 [2, 3]: 2.6 µM
